For assay [1], the system named is Human hair (Alkinco 6633). The assay is described as follows: HP-DSC keratin melting point of permanent-waved hair after 1% aqueous active substance, Alkinco 6633. To be noted: for Keratin melting point for Alkinco 6633: permanent-waved hair, treated 10 mins. with 1% aqueous solution of active substance, rinsed, dried. The source says: (§1) HP-DSC (High-Pressure Differential Scanning Calorimetry)
Thermoanalytical investigations are particularly suitable for characterizing two-phase systems to which human hair fibers as fibrous keratins with their crystalline α-helix component and amorphous matrix component also belong. On the one hand, glass transitions and aging behavior of the amorphous matrix can be investigated, on the other hand the melting behavior of the crystalline helical phase provides important information. Thermoanalytical studies were described for the first time in 1899. The first differential thermoanalyses (DTA) of protein fibers were carried out towards the end of the fifties (F. Schwenker, J. H. Dusenbury, Text. Res. J. […], 30, pages 800 et seq; W. D. Felix, M. A. McDowall, H. Eyring, ibid. (1963), 33, pages 465 et seq). In the following years, various thermoanalytical measuring techniques, such as DTA, HP-DTA (high-pressure DTA) and DSC (differential scanning calorimetry) were applied to keratin fibers, for example to investigate the phenomenon of supercontraction, α-β-phase transitions of the helices or denaturing processes. Recently, the method of IIP-DSC was used to study keratin fibers, more particularly at the Deutsches Wollforschungsinstitut (German Wool Research Institute) in Aachen (F. J. Wortmann, H. Deutz, J. Appl. Polym. Sci. 1993, 48, pp. 137 et seq.). IIP-DSC rules out the problems associated with pyrolytic effects which occur in conventional DSC and the problems with data acquisition and interpretation by which DTA is attended. DSC measurements are carried out on keratins which are encapsulated with water in commercially obtainable pressure-tight measuring capsules. In the keratin/water system, a high water vapor pressure from which the HP-DSC analysis derives builds up in the encapsulated steel crucibles on heating to >100° C. The crucial difference between the HP-DSC thermograms of human hair fibers and normal DSC thermograms is that the endothermal peaks which reproduce the transition point and the transition enthalpy are shifted by ca. 90° C. to lower temperatures. This derives from the fact that, after diffusing into the hair fibers, the water reduces protein stability by weakening and splitting hydrogen bridge bonds and salt bonds so that the “gluing temperature” of the keratins is reduced. If only hydrogen bridges and salt bridges are dissolved by the supercontracting agent, such as water, the thermal effect is reversible (supercontraction). However, the process becomes irreversible when covalent bonds, such as disulfide bridges for example, are split. […]
(§2) Accordingly, both structural and chemical states and changes in fiber keratins and particularly in human hair fibers can be detected by dynamic differential scanning calorimetry (DSC). Under precisely defined test conditions, the processes detectable by calorimetry in human hair fibers can be recorded in the form of thermograms and used in regard to peak positions, structures and areas as an indicator for influencing order/disorder transitions through changes in inner and/or outer parameters produced, for example, by cosmetic treatment of the hair fibers. In other words, information on the strength of or damage to human hair fibers can be obtained from the endothermal peaks recorded in the thermogram of human hair fibers on the basis of peak position (transition point) and peak area (transition enthalpy). […]

Assay [2] deals with Human hair (Alkinco 6634). The experiment in a line: HP-DSC keratin melting point of permanent-waved hair after 1% aqueous active substance, Alkinco 6634. The note with it: treated 10 mins. with 1% aqueous solution of active substance, rinsed, dried.
Excerpt: as §1
(§3) Thermoanalytical investigations are particularly suitable for characterizing two-phase systems to which human hair fibers as fibrous keratins with their crystalline α-helix component and amorphous matrix component also belong. On the one hand, glass transitions and aging behavior of the amorphous matrix can be investigated, on the other hand the melting behavior of the crystalline helical phase provides important information. Thermoanalytical studies were described for the first time in 1899. The first differential thermoanalyses (DTA) of protein fibers were carried out towards the end of the fifties (F. Schwenker, J. H. Dusenbury, Text. Res. J. 1963, 30, pages 800 et seq; W. D. Felix, M. A. McDowall, H. Eyring, ibid. (1963), 33, pages 465 et seq). In the following years, various thermoanalytical measuring techniques, such as DTA, HP-DTA (high-pressure DTA) and DSC (differential scanning calorimetry) were applied to keratin fibers, for example to investigate the phenomenon of supercontraction, α-β-phase transitions of the helices or denaturing processes. Recently, the method of IIP-DSC was used to study keratin fibers, more particularly at the Deutsches Wollforschungsinstitut (German Wool Research Institute) in Aachen (F. J. Wortmann, H. Deutz, J. Appl. Polym. Sci. 1993, 48, pp. 137 et seq.). IIP-DSC rules out the problems associated with pyrolytic effects which occur in conventional DSC and the problems with data acquisition and interpretation by which DTA is attended. DSC measurements are carried out on keratins which are encapsulated with water in commercially obtainable pressure-tight measuring capsules. In the keratin/water system, a high water vapor pressure from which the HP-DSC analysis derives builds up in the encapsulated steel crucibles on heating to >100° C. […]
as §2

In assay [3] the test system is Human hair (Alkinco 6634). The assay is described as follows: HP-DSC keratin melting point after aftertreatment with conditioner (Application Example 3.1) containing pyridoxine in various concentrations.
Excerpt: as §1, §3, §2

Assay [4] is described as follows: Fastness to washing of oxidation hair color, overall color difference DE* after 6 washes. On the set-up: species or system human. To be noted: colored (Poly Diadem 718), 5 mins. rinse (Application Example 3.2) containing 2% active substance, washed 6x, smaller DE* = higher fastness. As for the experimental part: Human hair fibers (Kerling Naturweiβ) were used. The hair fibers were intentionally damaged at their tips (2× blonding and 2× permanent waving) in order to simulate seriously damaged hair. […] After rinsing and drying, […] measurements (hair shafts and tips separated) were carried out and were repeated after 6 washes. […] The smaller DE* is, the smaller the loss of color by shampooing and the higher the fastness to washing.

Marks after values point to notes of the source that are not given here.

In the case of `Cc1ncc(CO)c(C=O)c1O` [Pyridoxal, pyridoxal], the “Keratin melting point for Alkinco 6633” value in assay [1] turned out to be 147.7 °C. Further, the “Keratin melting point for Alkinco 6634” value in assay [2] worked out at 152 °C.
On the same counts, the results for `Cc1ncc(COP(=O)(O)O)c(C=O)c1O` [Pyridoxal-5-phosphate, pyridoxal-5′-phosphate] are 148.3 °C and 152.7 °C.
In the case of `Cc1ncc(CO)c(CN)c1O` [Pyridoxamine, pyridoxamine], in assay [1], the “Keratin melting point for Alkinco 6633” value came to 147.9 °C. In addition, the “Keratin melting point for Alkinco 6634” value in assay [2] came out at 152.2 °C.
For the compound `Cc1ncc(CO)c(CO)c1O` [Pyridoxine, pyridoxine], the “increase in melting point” value in assay [1] (Alkinco 6633, 1% in water, versus permanent-waved reference sample, not statistically highly significant) was 0.5 °C. In addition, in assay [1], the “Keratin melting point for Alkinco 6633” value was 144* ° C. For the same compound, the “Keratin melting point for Alkinco 6634” value in assay [2] was determined as 152.1 °C. Moreover, the “Keratin melting point Alkinco 6634” value came out at 146.2 °C in assay [3] (conditioner (Application Example 3.1) + 0.2% vitamin B6, 2 mins. aftertreatment of permanent-waved hair); 146.5 °C in assay [3] (conditioner (Application Example 3.1) + 0.5% vitamin B6, 2 mins. aftertreatment of permanent-waved hair); 147.4 °C in assay [3] (conditioner (Application Example 3.1) + 1.0% vitamin B6, 2 mins. aftertreatment of permanent-waved hair). For the same compound, the “significance of (re)structuring effect by comparison with the reference sample” value in assay [3] (conditioner + 0.2% vitamin B6, Alkinco 6634) is given as “satistically significant”. Further, the “DE* for normal weathered shafts” value in assay [4] is 1.8. In assay [4] (tips damaged 2x blonding and 2x permanent waving), the “DE* for seriously damaged tips” value came out at 5.8.
